Data as given in patent publication US7619005B2, “Methods for treating cognitive impairment in humans with Multiple Sclerosis” (Cognition Pharmaceuticals LLC, priority 2000, dated 2009).
“And” between values parts separate entries of the source, which are not always exact repeats. Equal values may be shown once.

Tests used:
[1] = test system: scopolamine treated rats; assay: Passive Avoidance in scopolamine treated rats (memory impairment); type: in vivo, rat
[2] = test system: rats; assay: Tail-Flick Analgesia Testing (C105); type: in vivo, rat; set-up: Tail-Flick Analgesia (latency to flick tail): unit not given here; details: for Tail-Flick Analgesia (latency to flick tail): each animal
Method: For Tail-Flick Analgesia Testing, the animal was placed on top of the Tail-Flick monitor and gently held in place with a cotton towel. The tail of the animal was placed in a shallow groove lying between two sensors and over the top of a radiant heat wire. The Tail Flick monitor was activated, and the latency for the animal to flick its tail out of the groove and away from the heat source was recorded. The animal was returned to its home cage immediately following testing.

[3] = test system: rats with bilateral lesions of the fornix; assay: Inhibitory Avoidance task, fornix lesion rats; details: for latency to enter the dark side of the apparatus: Fornix lesion rats, each animal
Method: (§1) Two seconds after entering the dark chamber, a continuous 0.46 mA foot-shock was delivered through the floor grid for two seconds. The animal was then removed from the apparatus and returned to the home cage. The animals received a retention test 24 hours following training. The retention test was identical to training except that no foot-shock was delivered. […] Data was collected by the Graphic State™ Notation software, and was recorded onto an appropriate data sheet.

[4] = test system: rats; assay: Inhibitory Avoidance task, normal rats
Method: The paradigms consists of one training trial and one retention trial. Test substances may be administered to the rats either before or after training. Improved memory, as a result of test substance administration, is evident on the retention trial.
as §1

[5] = test system: Long-Evans rats; assay: Passive Avoidance test, injection immediately after training; details: i.p. immediately after training; p values=0.007 (C105), 0.0004 (d-amphetamine), 0.03 (SN522)
[6] = test system: healthy adult male and female subjects; assay: Phase 1 studies of C105: safety and tolerability; type: in vivo, human
Description: Safety and tolerability assessments were changes in vital signs, ECGs, Holter monitoring, laboratory tests, physical examination and adverse events.

[7] = test system: rats; assay: Spontaneous Object Recognition task, normal rats; details: 0.5 mg/kg immediately following training
Description: Apparatus for Object Recognition testing consisted of a plexiglass open field activity chamber, measuring 30 by 30 cm. A video camera was mounted on the wall above the chamber. Three plastic objects served as stimuli for the experiment. Two of the objects were identical to one another, and the third was different. Rats were individually habituated to the open-field box for three consecutive days. Habituation sessions were six minutes in duration. Twenty-four hours after the last day of habituation, a training session was conducted, in which two identical objects were placed in the open-field box, 10 cm from the back wall. The animal was placed into the box and was allowed to explore freely for a period of four minutes. Twenty-four hours after the training session, retention testing was conducted. During retention testing, the rat was placed back into the same activity box with one of the familiar objects used during the training session and a novel object that the rat had not seen before. The rat was allowed to explore the box and objects for a period of four minutes. Testing was conducted at the same time each day, and was videotaped for off-line analysis. Two discrimination indices, D1 and D2 were calculated in order to measure the strength of recognition memory. […]

(−)-1-methyl-2-phenylethylamine sulfate (2:1) [C105]
performance vs animals treated with scopolamine and saline ([1]; 1.0 mg/kg of C105, printed p>0.05): performed significantly better than animals treated with scopolamine and saline
alleviation of scopolamine impairment (step-through latency) ([1]; C105 i.p. immediately after training, log rank p=0.02 (FIG. 33)): effective at alleviating the impairment in the scopolamine-injected animals
Tail-Flick Analgesia (latency to flick tail) ([2]; 1.0 mg/kg one hour prior to testing): 4.60 and 5.09 and 6.01 and 1.13 and 2.28 and 3.26 and 3.30 and 4.59
Tail-Flick Analgesia (latency to flick tail) ([2]; 2.0 mg/kg one hour prior to testing): 3.89 and 3.96 and 4.45 and 2.46 and 2.68 and 2.79 and 3.05 and 3.56
Tail-Flick Analgesia (latency to flick tail) ([2]; 4.0 mg/kg one hour prior to testing): 6.66 and 16.44 and 20.00 and 2.22 and 3.13 and 5.43 and 6.26 and 6.42
Tail-Flick Analgesia (latency to flick tail) ([2]; 8.0 mg/kg one hour prior to testing): 6.54 and 7.39 and 14.43 and 3.13 and 4.67 and 4.72 and 5.22
analgesic properties ([2]; 1.0 and 2.0 mg/kg one hour prior to testing): had no analgesic properties
analgesic properties ([2]; 4.0 and 8.0 mg/kg one hour prior to testing, statistical significance at 4.0 mg/kg (p<0.0117)): did
dose most effective in improving the performance of the fornix lesion animals ([3]; 0.5, 1.0, 2.0 and 4.0 mg/kg tested, one hour prior to testing (FIG. 12)): 1.0 mg/kg
latency to enter the dark side of the apparatus ([3]; 0.5 mg/kg): 21.0 seconds (2×) and 32.0 seconds and 55.0 seconds and 65.0 seconds and 72.0 seconds and 209.0 seconds and 4.0 seconds and 7.0 seconds and 13.0 seconds
latency to enter the dark side of the apparatus ([3]; 1.0 mg/kg): 19.0 seconds (2×) and 166.0 seconds and 221.0 seconds and 246.0 seconds and 274.0 seconds and 314.0 seconds and 4.0 seconds and 7.0 seconds
latency to enter the dark side of the apparatus ([3]; 2.0 mg/kg): 28.0 s and 30.0 s and 40.0 s and 70.0 s and 84.0 s and 153.0 s and 4.0 s and 17.0 s and 18.0 s and 26.0 s
latency to enter the dark side of the apparatus ([3]; 4.0 mg/kg): 25.0 s and 28.0 s and 42.0 s and 96.0 s and 140.0 s and 159.0 s and 2.0 s and 8.0 s and 13.0 s and 21.0 s
latency to enter the dark side of the apparatus ([4]; 0.4 mg/kg one hour prior to training, each animal, rank-ordered): 231.0 s and 236.0 s and 250.0 s and 265.0 s and 629.0 s and 45.0 s and 62.0 s and 80.0 s and 87.0 s and 170.0 s
Inhibitory Avoidance performance, post training administration ([4]; 0.5 mg/kg immediately after training (FIG. 11), p<0.0402): significantly enhanced performance on the Inhibitory Avoidance task
latency to enter the dark side of the apparatus ([4]; 1.0 mg/kg one hour prior to training, each animal, rank-ordered): 343.0 s and 729.0 s and 813.0 s and 824.0 s and 900.0 s and 101.0 s and 115.0 s and 121.0 s and 202.0 s and 265.0 s
Inhibitory Avoidance performance vs saline controls ([4]; 1.0 mg/kg one hour prior to training, post hoc p<0.05): performed significantly better than saline injected controls
latency to enter the dark side of the apparatus ([4]; 2.0 mg/kg one hour prior to training, each animal, rank-ordered): 230.0 seconds and 231.0 seconds and 253.0 seconds and 366.0 seconds and 384.0 seconds and 30.0 seconds and 59.0 seconds (2×) and 127.0 seconds and 137.0 seconds
latency to enter the dark side of the apparatus ([4]; Control rats, 0.5 mg/kg, each animal (Table 7)): 214.0 s and 240.0 s and 252.0 s and 271.0 s and 284.0 s
latency to enter the dark side of the apparatus ([4]; Control rats, 1.0 mg/kg, each animal (Table 7)): 106.0 s and 195.0 s and 197.0 s and 213.0 s and 238.0 s
latency to enter the dark side of the apparatus ([4]; Control rats, 2.0 mg/kg, each animal (Table 7)): 86.0 s and 92.0 s and 106.0 s and 160.0 s and 192.0 s
latency to enter the dark side of the apparatus ([4]; Control rats, 4.0 mg/kg, each animal (Table 7)): 83.0 seconds (2×) and 86.0 seconds and 98.0 seconds and 193.0 seconds
mnemonic performance, Inhibitory Avoidance ([4]; doses lower than 0.5 mg/kg (0.1, […]) one hour prior to training): not effective in improving the mnemonic performance
latency to enter the dark side of the apparatus ([4]; low doses: 0.1 mg/kg one hour prior to training, each animal, 0.1 mg/kg): 55.0 seconds (2×) and 110.0 seconds and 113.0 seconds and 124.0 seconds and 366.0 seconds and 37.0 seconds (2×) and 39.0 seconds (2×)
dose that significantly improved performance on the passive avoidance task [5]: 0.5 mg/kg
serious adverse events ([6]; single oral doses 5 to 45 mg): no reported serious adverse events
most frequently reported adverse events ([6]; single oral doses 5 to 45 mg, generally mild): dizziness, headache, insomnia, sinus tachycardia, supraventricular tachycardia and aptyalism
tolerability ([6]; single oral doses ranging from 5 to 45 mg): well tolerated
discrimination indices D1 and D2 vs saline ([7]; p<0.0147 and p<0.0024): significantly higher
recognition memory ([7]; retention 24 h): significantly improved recognition memory
